Results reported in EP1295874A2, “Retroviral protease inhibiting compounds” (Abbott Laboratories, priority 1995, dated 1997).
Read-outs that look alike come from different tables or passages of the source.

How the values were obtained:
[1] = system: Ritonavir-Resistant Mutant HIV Clones; experiment: microbe, parasite or virus in culture; format: cell-based
[2] = system: HIV Selected In Vitro by the Compound of Example 2B; experiment: microbe, parasite or virus in culture; format: cell-based
[3] = 50% lethal concentration in uninfected MT4 cells (MTT); format: cell-based; details: human, read-out: LC50
Description: (§1) The anti-HIV activity of the compound of the invention can be determined in MT4 cells according to the following procedure. MT4 cells were infected with cell-free supernatant of HIVIIIB (previously frozen with known 50% tissue culture infectious dose (TCID50) at 0.003 multiplicity of infection (MOI) for one hour. After one hour infection, cells were washed twice to remove residual viruses, resuspended in culture media and seeded into 96-well tissue culture plates at 1x10^4 cells per well with various half-log dilutions of compounds. Uninfected cells are included as toxicity and cell controls. RPMI 1640 media (Gibco ) with 10% fetal bovine serum were used as culture media. Various concentrations of human serum (Sigma) 50%, 25% and 12.5% were added to culture media resulting in final concentration of 60%, 35% and 22.5% total serum. All assay plates were incubated in 37 deg. cent. incubator for 5 days. MTT (sigma, 5 mg/ml stock in PBS) was added to all wells at 25 ul per well, incubate for 4 hours. 20%SDS with 0.02 N HCl in water was added at 50 ul per well to lyse cellls. Plates incubated overnight for complete lyses were read on a microtitre plate reader at 570/650 nm wavelengths to determine cell optical density (O.D.). Raw data were analysed for percent inhibition by the following formula: (O.D. test well - O.D. virus control)/(O.D. cell control -O.D. virus control)x100 [formula] The 50% effective concentration (EC50) was calculated by the median effect equation (Chou, 1975,Proc. Int. Cong. Pharmacol. 6th p. 619) to determine the efficacy of compound. The 50% lethal concentration (LC50) was calculated using uninfected MT4 cells.
(§2) Under these conditions, the following data were obtained (n = 4 duplicate determinations: Table 2

HIVIIIB = experiment: Antiviral activity (anti-HIV activity) in MT4 cells, MTT readout; format: cell-based; details: Human immunodeficiency virus 1, MT4, 120 h, read-out: IC50 (µM, 0% plasma)
Description: as §1, §2

[4] = system: Ritonavir-Resistant HIV from Patients; experiment: microbe, parasite or virus in culture; format: cell-based
HIV protease = target: T1, HIV protease (Human immunodeficiency virus type 1 group M subtype B, UniProt P04585); experiment: Fluorogenic Assay for Screening Inhibitors of HIV Protease; format: biochemical; details: Inhibitor Concentration 0.5 nanomolar; read-out: Percent Inhibition
T1 construct: HIV protease consists of two identical subunits, each of which has 99 amino acid residues
Experimental: The inhibitory potency of the compound of the invention can be determined by the following method.
The compound of the invention is dissolved in DMSO and a small aliquot further diluted with DMSO to 100 times the final concentration desired for testing. The reaction is carried out in a 6 X 50 mm tube in a total volume of 300 microliters. The final concentrations of the components in the reaction buffer are: 125 mM sodium acetate, 1 M sodium chloride, 5 mM dithiothreitol, 0.5 mg/ml bovine serum albumin, 1.3 µM fluorogenic substrate, 2% (v/v) dimethylsulfoxide, pH 4.5. After addition of inhibitor, the reaction mixture is placed in the fluorometer cell holder and incubated at 30°C for several minutes. The reaction is initiated by the addition of a small aliquot of cold HIV protease. The fluorescence intensity (excitation 340 nm, emmision 490 nM) is recorded as a function of time. The reaction rate is determined for the first six to eight minutes. The observed rate is directly proportional to the moles of substrate cleaved per unit time. The percent inhibition is 100 X (1 - (rate in presence of inhibitor)/(rate in absence of inhibitor)).
Fluorogenic substrate: Dabcyl-Gaba-Ser-Gln-Asn-Tyr-Pro-lle-Val-Gln-EDANS wherein DABCYL = 4-(4-dimethylamino-phenyl)azobenzoic acid, Gaba = γ-aminobutyric acid, and EDANS = 5-((2-aminoethyl)amino)-naphthalene-1-sulfonic acid.

Passaged HIV-1 = experiment: Phenotypic susceptibility of in vitro passaged HIV-1 to the compound of Example 2B (MTT colorimetric assay); format: cell-based

In the case of `Cc1cccc(C)c1OCC(=O)N[C@@H](Cc1ccccc1)[C@@H](O)C[C@H](Cc1ccccc1)NC(=O)[C@H](C(C)C)N1CCCNC1=O` [Example 2B, (2S, 3S, 5S)-2-(2,6-Dimethylphenoxyacetyl) amino-3-hydroxy-5-[2S-(1-tetrahydro-pyrimid-2-onyl)-3-methylbutanoyl] amino-1,6-diphenylhexane], the EC50 ([1]; Human immunodeficiency virus 1, HXB2, Virus Clone Wild Type (HXB2), 0% Human Serum) is reported as 12 nM, the EC50 ([1]; Human immunodeficiency virus 1, HXB2, Virus Clone Wild Type (HXB2), 50% Human Serum) is reported as 51 nM and the EC50 ([1]; Human immunodeficiency virus 1, Virus Clone E35D, M36I, I54V, A71V, V82T, 0% Human Serum) is reported as 83 nM. For the same compound, the EC50 ([1]; Human immunodeficiency virus 1, Virus Clone E35D, M36I, I54V, A71V, V82T, 50% Human Serum) was 691 nM, the EC50 ([1]; Human immunodeficiency virus 1, Virus Clone G48V, 0% Human Serum) was 8 nM and the EC50 ([1]; Human immunodeficiency virus 1, Virus Clone G48V, 50% Human Serum) was 156 nM. The EC50 ([1]; Human immunodeficiency virus 1, Virus Clone I54V, V82T, 0% Human Serum) was 213 nM, the EC50 ([1]; Human immunodeficiency virus 1, Virus Clone I54V, V82T, 50% Human Serum) was 1150 nM and the EC50 ([1]; Human immunodeficiency virus 1, Virus Clone I84V, 0% Human Serum) was 20 nM. For the same compound, the EC50 ([1]; Human immunodeficiency virus 1, Virus Clone I84V, 50% Human Serum) was 170 nM, the EC50 ([1]; Human immunodeficiency virus 1, Virus Clone K20R, E35D, M36I, I54V, A71V, V82T, 0% Human Serum) was 93 nM and the EC50 ([1]; Human immunodeficiency virus 1, Virus Clone K20R, E35D, M36I, I54V, A71V, V82T, 50% Human Serum) was 376 nM. The EC50 ([1]; Human immunodeficiency virus 1, Virus Clone L90M, 0% Human Serum) was 16 nM, the EC50 ([1]; Human immunodeficiency virus 1, Virus Clone L90M, 50% Human Serum) was 180 nM and the EC50 ([1]; Human immunodeficiency virus 1, Virus Clone V82A, 0% Human Serum) was 33 nM. The EC50 ([1]; Human immunodeficiency virus 1, Virus Clone V82A, 50% Human Serum) was 268 nM, the EC50 ([1]; Human immunodeficiency virus 1, Virus Clone V82F, 0% Human Serum) was 26 nM and the EC50 ([1]; Human immunodeficiency virus 1, Virus Clone V82F, 50% Human Serum) was 147 nM. It also gave an EC50 ([1]; Human immunodeficiency virus 1, Virus Clone V82S, 0% Human Serum) of 26 nM, an EC50 ([1]; Human immunodeficiency virus 1, Virus Clone V82S, 50% Human Serum) of 314 nM and an EC50 ([1]; Human immunodeficiency virus 1, Virus Clone V82T, 50% Human Serum) of 147 nM. The EC50 ([1]; Human immunodeficiency virus 1, Virus Clone Wild Type (pNL4-3), 0% Human Serum) was 22 nM, the EC50 ([1]; Human immunodeficiency virus 1, Virus Clone Wild Type (pNL4-3), 50% Human Serum) was 126 nM and the EC50 ([2]; Human immunodeficiency virus 1, NL43, Virus NL4-3) was 28 nM. For the same compound, the EC50 ([2]; Human immunodeficiency virus 1, Virus P7) was 116 nM, the EC50 ([2]; Human immunodeficiency virus 1, Virus P11) was 349 nM and the EC50 ([2]; Human immunodeficiency virus 1, Virus P14) was 1280 nM. For the same compound, the EC50 ([2]; Human immunodeficiency virus 1, Virus P17) was 9480 nM, the CC50 at 120 h [3] was 17800 nM and the IC50 (HIVIIIB) was 0.016 µM. It also gave an EC50 ([4]; Human immunodeficiency virus 1, 24 h, Patient No. 313, Day 1, baseline) of 4 nM, an EC50 ([4]; Human immunodeficiency virus 1, 24 h, Patient No. 410, Day 1, baseline) of 6 nM and an EC50 ([4]; Human immunodeficiency virus 1, 504 h, Patient No. 104, Day 21, V82A) of 9 nM. For the same compound, the EC50 ([4]; Human immunodeficiency virus 1, 672 h, Patient No. 104, Day 28, V82T) was 13 nM, the EC50 ([4]; Human immunodeficiency virus 1, Patient No. 104, Day -1, baseline) was 8 nM and the EC50 ([4]; Human immunodeficiency virus 1, Patient No. 129, Day 84, M36I, I54V, A71V, V82T) was 33 nM. It also gave an EC50 ([4]; Human immunodeficiency virus 1, Patient No. 129, Day 140, K20K/R, M36M/I, I54V, A71A/V, V82T) of 29 nM, an EC50 ([4]; Human immunodeficiency virus 1, Patient No. 129, Day -1, baseline) of 5 nM and an EC50 ([4]; Human immunodeficiency virus 1, Patient No. 131, Day 88, M36I, 154V>I, V82A) of 15 nM. The EC50 ([4]; Human immunodeficiency virus 1, Patient No. 131, Day 200, K20K/R, M36I, I54I/V, V82A) was 52 nM, the EC50 ([4]; Human immunodeficiency virus 1, Patient No. 131, Day -28, baseline) was 4 nM and the EC50 ([4]; Human immunodeficiency virus 1, Patient No. 224, Day 110, L33L/F, V82T/S) was 12 nM. It also gave an EC50 ([4]; Human immunodeficiency virus 1, Patient No. 224, Day 190, K20K/N/R, L33L/F, M36M/I, I54V/M, V82S) of 52 nM, an EC50 ([4]; Human immunodeficiency virus 1, Patient No. 224, Day -6, baseline) of 6 nM and an EC50 ([4]; Human immunodeficiency virus 1, Patient No. 235, Day 167, I54I/V, A71V, V82A. L90L/M) of 6 nM. It also gave an EC50 ([4]; Human immunodeficiency virus 1, Patient No. 235, Day -1, baseline) of 6 nM, an EC50 ([4]; Human immunodeficiency virus 1, Patient No. 313, Day 57, M36M/I, V82F) of 11 nM and an EC50 ([4]; Human immunodeficiency virus 1, Patient No. 313, Day 85, M36M/I, I54I/V, V82S/F/A/T) of 25 nM. The EC50 ([4]; Human immunodeficiency virus 1, Patient No. 410, Day 57, M36M/I, I54I/V, V82A) was 33 nM, the EC50 ([4]; Human immunodeficiency virus 1, Patient No. 410, Day 85, M36I, I54V, V82A) was 97 nM and the inhibition at 0.0005 µM (HIV protease) was 93.2%. The EC50 (Passaged HIV-1; Human immunodeficiency virus 1, 384 h, read-out: The compound of Example 2B EC50 (µM), Virus P2 (selected at 0.02 µM, 16 days in culture)) was 0.025 µM, the EC50 (Passaged HIV-1; Human immunodeficiency virus 1, NL43, read-out: The compound of Example 2B EC50 (µM), Virus NL4-3) was 0.028 µM and the EC50 (Passaged HIV-1; Human immunodeficiency virus 1, read-out: The compound of Example 2B EC50 (µM), Virus P6 (selected at 0.12 µM, 58 days in culture)) was 0.149 µM. It also gave an EC50 (Passaged HIV-1; Human immunodeficiency virus 1, read-out: The compound of Example 2B EC50 (µM), Virus P7 (selected at 0.15 µM, 65 days in culture)) of 0.201 µM, an EC50 (Passaged HIV-1; Human immunodeficiency virus 1, read-out: The compound of Example 2B EC50 (µM), Virus P8 (selected at 0.21 µM, 75 days in culture)) of 0.295 µM and an EC50 (Passaged HIV-1; Human immunodeficiency virus 1, read-out: The compound of Example 2B EC50 (µM), Virus P9 (selected at 0.30 µM, 82 days in culture)) of 0.333 µM. The EC50 (Passaged HIV-1; Human immunodeficiency virus 1, read-out: The compound of Example 2B EC50 (µM), Virus P10 (selected at 0.30 µM, 93 days in culture)) was 0.464 µM, the EC50 (Passaged HIV-1; Human immunodeficiency virus 1, read-out: The compound of Example 2B EC50 (µM), Virus P11 (selected at 0.42 µM, 100 days in culture)) was 0.346 µM and the EC50 (Passaged HIV-1; Human immunodeficiency virus 1, read-out: The compound of Example 2B EC50 (µM), Virus P12 (selected at 0.62 µM, 107 days in culture)) was 0.291 µM. It also gave an EC50 (Passaged HIV-1; Human immunodeficiency virus 1, read-out: The compound of Example 2B EC50 (µM), Virus P13 (selected at 0.80 µM, 114 days in culture)) of 1 µM, an EC50 (Passaged HIV-1; Human immunodeficiency virus 1, read-out: The compound of Example 2B EC50 (µM), Virus P14 (selected at 1.10 µM, 121 days in culture)) of 1.11 µM and an EC50 (Passaged HIV-1; Human immunodeficiency virus 1, read-out: The compound of Example 2B EC50 (µM), Virus P15 (selected at 1.50 µM, 128 days in culture)) of 1.34 µM. The EC50 (Passaged HIV-1; Human immunodeficiency virus 1, read-out: The compound of Example 2B EC50 (µM), Virus P16 (selected at 2.00 µM, 135 days in culture)) was 1.43 µM.
